In brackets after ≈: the same amount, converted by molar mass. Entries after “also recorded” stand apart in the source; their conditions may differ. Like-named read-outs stand apart in the source and are kept apart here.
What was measured:
[1] = system: L1210 leukemia cells; test: Growth inhibition of L1210 leukemia culture cells in vitro; type: cell-based, mouse; conditions: for IC50: Mus musculus
Description: (§1) The 50% inhibitory concentration of trisarubicinol on L1210 leukemia cells was calculated by culturing 5×10^4 cells/ml at 37° C. in 5% CO2 -air in 20% calf serum-supplemented RPMI 1640 medium (Roswell Park Memorial Institute 1640 medium) containing none (control), 0.01 and 0.05 μg/ml of trisarubicinol. In addition. the inhibitory effect of the new anthracycline compound on nucleic acid synthesis was examined as follows: after 5×10^5 cells/ml of L1210 leukemia cells were preincubated in 5% CO2 -air at 37° C. for 1-2 hours in RPMI medium containing 10% calf serum, varied concentrations of trisarubicinol were added and incubated for 15 minutes under the same conditions. Then 0.05 μCi/ml each of ^14 C-uridine or ^14 C-thymidine was added to the cell suspensions and the mixtures were incubated at 37° C. for a further 60 minutes. At the end of incubation, cold 10% trichloroacetic acid was added to stop the incorporation of the radio-labelled compound. The acid-insoluble fractions were collected by centrifugation; rinsed three times with 5% trichloroacetic acid; and dissolved in formic acid for radiometry. The 50% inhibitory concentration of the new anthracycline compound was calculated from the radiometric data of the acid-insoluble fractions of the control and test reaction mixtures.

[2] = system: L1210 mouse leukemia; test: In vivo activity on L1210 mouse leukemia, prolongation of survival time; set-up: species or system mouse (CDF1 mice); conditions: for prolongation of survival time (T/C): i.p. every day for 10 days, CDF1 mice
Description: The therapeutic effect of trisarubicinol was examined by calculating the prolongation of the survival time of treated animals relative to untreated ones (receiving physiological saline). In practice, 1×10^5 mouse leukemia cells each were intraperitoneally transplanted into CDF1 mice and varied doses of trisarubicinol were intraperitoneally injected every day for 10 days from 24 hours after cell transplantation.

[3] = system: L1210 leukemia cells, DNA synthesis; test: DNA synthesis inhibition in L1210 leukemia culture cells (14C-thymidine incorporation); type: cell-based; conditions: Mus musculus
Description: as §1

[4] = system: L1210 leukemia cells, RNA synthesis; test: RNA synthesis inhibition in L1210 leukemia culture cells (14C-uridine incorporation); type: cell-based, mouse; conditions: for IC50: Mus musculus
Description: as §1

[5] = Acute toxicity; type: in vivo
[6] = system: various experimental tumors in animals; test: Antitumor activity on various experimental tumors in animals; conditions: in vivo

| Compound | growth inhibition of L1210 cells (in words) ([1]; L1210 cultured cells / at low doses) | IC50 ([1]; L1210, read-out: 50% inhibitory concentration (IC50), cell growth inhibition) | antitumor activity compared with carminomycin I (in words) ([1]; versus carminomycin I, L1210) | effect on survival time of leukemia cells-holding mice / therapeutic effect (in words) ([2]; L1210 mouse leukemia) | prolongation of survival time (T/C) ([2]; dose 0.63 (head prints "%")) | prolongation of survival time (T/C) ([2]; dose 1.25 (head prints "%")) | prolongation of survival time (T/C) ([2]; dose 2.5 (head prints "%")) | prolongation of survival time (T/C) ([2]; dose 5.0 (head prints "%")) | prolongation of survival time (T/C) ([2]; dose 7.5 (head prints "%")) | prolongation of survival time (T/C) ([2]; dose 10 (head prints "%")) | IC50 ([3]; L1210, read-out: 50% inhibitory concentration (IC50), DNA synthesis inhibition) | IC50 ([4]; L1210, read-out: 50% inhibitory concentration (IC50), RNA synthesis inhibition) | RNA synthesis inhibition compared with carminomycin I (in words) ([4]; at very low concentrations, versus carminomycin I) | LD50 ([5]; in vivo, ip) | toxicity (in words) ([5]; relative to carminomycin I, general statement) | antitumor activity on various experimental tumors in animals (in words) [6] | IC50 ([1]; L1210 culture cells, 5×10^4 cells/ml, 37° C., 20% calf serum-supplemented RPMI 1640, read-out: 50% inhibitory concentration (IC50), cell growth inhibition) | IC50 ([3]; L1210 culture cells, 15 min with compound, then 60 min with 14C-thymidine, read-out: 50% inhibitory concentration (IC50), DNA synthesis inhibition) | IC50 ([4]; L1210 culture cells, 15 min with compound, then 60 min with 14C-uridine, read-out: 50% inhibitory concentration (IC50), RNA synthesis inhibition) |
| --- | --- | --- | --- | --- | --- | --- | --- | --- | --- | --- | --- | --- | --- | --- | --- | --- | --- | --- | --- |
| CC(O)C1(O)Cc2c(O)c3c(c(O)c2C(O[C@H]2C[C@H](N(C)C)[C@H](O[C@H]4C[C@H](O)[C@H](O[C@H]5CCC(=O)[C@H](C)O5)[C@H](C)O4)[C@H](C)O2)C1)C(=O)c1c(O)cccc1C3=O (stereo partly shown) [trisarubicinol] | markedly inhibits the growth and nucleic acid synthesis in cultured cells of mouse leukemia (L1210); also recorded: significantly inhibits the growth of L1210 mouse leukemia cells at low doses | 0.01 µg/mL (≈ 0.0127 µM) | same or better antitumor activity | marked prolonging effect on the survival time of leukemia cells-holding mice; also recorded: strong therapeutic effect on mouse leukemia (L1210) | 122% | 124% | 159% | 216% | 243% | 131% | 0.38 µg/mL (≈ 0.484 µM) | 0.06 µg/mL (≈ 0.0764 µM) | better inhibition of RNA synthesis at very low concentrations | 40 to 50 mg/kg | less toxic than carminomycin I; also recorded: unique low toxicity | excellent antitumor activity on various experimental tumors in animals |  |  |  |
| CC(=O)[C@]1(O)Cc2c(O)c3c(c(O)c2[C@@H](O[C@H]2C[C@H](N)[C@H](O)[C@H](C)O2)C1)C(=O)c1c(O)cccc1C3=O [carminomycin I, reference compound] |  |  |  |  |  |  |  |  |  |  |  |  |  |  |  |  | 0.01 µg/mL (≈ 0.0195 µM) | 0.2 µg/mL (≈ 0.389 µM) | 0.29 µg/mL (≈ 0.565 µM) |

Source: patent US4424342A, “Anthracycline antibiotic compounds” (priority 1981, dated 1984)
